Measured values: ChEMBL document CHEMBL1201862, “PubChem BioAssay data set” (2004)
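Interpolation was linear, between the two tested concentrations surrounding the appropriate level; five concentrations were tested over 48 hours in 96-well plates. GI50 marks 50% less growth.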 Activity calls are given as the source filed them. Cut-off read from the data, not from the text of the source: active = GI50 up to about 1.1 µM and inactive = higher.

What was measured:
Experiment in all cases: NCI-60 cell line screen, 48 h
HCT-116 = tested on: HCT-116
ACHN = tested on: ACHN
SF-295 = tested on: SF-295
MCF7 = tested on: MCF7
SK-MEL-28 = tested on: SK-MEL-28
SF-539 = tested on: SF-539
HCT-15 = tested on: HCT-15
SN12C = tested on: SN12C
HT-29 = tested on: HT-29
SR = tested on: SR
SK-MEL-5 = tested on: SK-MEL-5
786-0 = tested on: 786-0
OVCAR-5 = tested on: OVCAR-5
CCRF-CEM = tested on: CCRF-CEM
UACC-62 = tested on: UACC-62
PC-3 = tested on: PC-3
COLO 205 = tested on: COLO 205
OVCAR-3 = tested on: OVCAR-3
SW-620 = tested on: SW-620
SNB-19 = tested on: SNB-19
OVCAR-4 = tested on: OVCAR-4
HOP-62 = tested on: HOP-62
A549 = tested on: A549
Hs-578T = tested on: Hs-578T
MDA-MB-231 = tested on: MDA-MB-231
SK-OV-3 = tested on: SK-OV-3
SK-MEL-2 = tested on: SK-MEL-2
K562 = tested on: K562
OVCAR-8 = tested on: OVCAR-8
SNB-75 = tested on: SNB-75
RXF 393 = tested on: RXF 393
IGROV-1 = tested on: IGROV-1
NCI-H226 = tested on: NCI-H226
SF-268 = tested on: SF-268
NCI-H522 = tested on: NCI-H522
NCI-H460 = tested on: NCI-H460
RPMI-8226 = tested on: RPMI-8226
T47D = tested on: T47D
M14 = tested on: M14
A498 = tested on: A498
UO-31 = tested on: UO-31
U-251 = tested on: U-251
TK-10 = tested on: TK-10
HL-60 = tested on: HL-60
MDA-N = tested on: MDA-N
HOP-92 = tested on: HOP-92
EKVX = tested on: EKVX
Malme-3M = tested on: Malme-3M
KM12 = tested on: KM12
BT-549 = tested on: BT-549
LOX IMVI = tested on: LOX IMVI
CAKI-1 = tested on: CAKI-1
DU-145 = tested on: DU-145
NCI-H23 = tested on: NCI-H23
UACC-257 = tested on: UACC-257
HCC 2998 = tested on: HCC 2998
MDA-MB-435 = tested on: MDA-MB-435
NCI/ADR-RES = tested on: NCI/ADR-RES
MOLT-4 = tested on: MOLT-4

## C[C@H](C(O)CC(=O)C(C)(C)O)[C@H]1CC[C@@]2(C)[C@@H]3CC[C@H]4C(C)(C)[C@@H](OC5OC(COC6OC(CO)C(O)C(O)C6O)C(O)C(O)C5O)CC[C@]4(C)C3=CC[C@]12C (stereo not given in full)
HCT-116
  GI50: > 100 µM (inactive)
ACHN
  GI50: > 100 µM (inactive)
SF-295
  GI50: > 100 µM (inactive)
MCF7
  GI50: > 100 µM (inactive)
SK-MEL-28
  GI50: > 100 µM (inactive)
SF-539
  GI50: > 100 µM (inactive)
HCT-15
  GI50: > 100 µM
SN12C
  GI50: > 100 µM (inactive)
HT-29
  GI50: > 100 µM (inactive)
SR
  GI50: > 100 µM (inactive)
SK-MEL-5
  GI50: > 100 µM (inactive)
786-0
  GI50: > 100 µM (inactive)
OVCAR-5
  GI50: > 100 µM (inactive)
CCRF-CEM
  GI50: > 100 µM (inactive)
UACC-62
  GI50: > 100 µM (inactive)
PC-3
  GI50: > 100 µM (inactive)
COLO 205
  GI50: > 100 µM (inactive)
OVCAR-3
  GI50: > 100 µM (inactive)
SW-620
  GI50: > 100 µM (inactive)
SNB-19
  GI50: > 100 µM (inactive)
OVCAR-4
  GI50: > 100 µM (inactive)
HOP-62
  GI50: > 100 µM (inactive)
A549
  GI50: > 100 µM (inactive)
Hs-578T
  GI50: > 100 µM (inactive)
MDA-MB-231
  GI50: > 100 µM (inactive)
SK-OV-3
  GI50: > 100 µM (inactive)
SK-MEL-2
  GI50: > 100 µM (inactive)
K562
  GI50: > 100 µM (inactive)
OVCAR-8
  GI50: > 100 µM (inactive)
SNB-75
  GI50: > 100 µM (inactive)
RXF 393
  GI50: > 100 µM (inactive)
IGROV-1
  GI50: > 100 µM (inactive)
NCI-H226
  GI50: > 100 µM (inactive)
SF-268
  GI50: > 100 µM (inactive)
NCI-H522
  GI50: > 100 µM (inactive)
NCI-H460
  GI50: > 100 µM (inactive)
RPMI-8226
  GI50: > 100 µM (inactive)
T47D
  GI50: > 100 µM (inactive)
M14
  GI50: > 100 µM (inactive)
A498
  GI50: > 100 µM (inactive)
UO-31
  GI50: > 100 µM (inactive)
U-251
  GI50: > 100 µM (inactive)
TK-10
  GI50: > 100 µM (inactive)
HL-60
  GI50: > 100 µM (inactive)
MDA-N
  GI50: > 100 µM (inactive)
HOP-92
  GI50: > 100 µM (inactive)
EKVX
  GI50: > 100 µM (inactive)
Malme-3M
  GI50: > 100 µM (inactive)
KM12
  GI50: > 100 µM (inactive)
BT-549
  GI50: > 100 µM (inactive)
LOX IMVI
  GI50: > 100 µM (inactive)
CAKI-1
  GI50: > 100 µM (inactive)
DU-145
  GI50: > 100 µM (inactive)
NCI-H23
  GI50: > 100 µM (inactive)
UACC-257
  GI50: > 100 µM (inactive)
HCC 2998
  GI50: > 100 µM (inactive)
MDA-MB-435
  GI50: > 100 µM (inactive)

## COc1cc(/C=C2/SC(c3ccccc3)N(Cc3ccccc3)C2=O)cc(OC)c1OC (stereo not given)
HCT-116
  GI50: 14.9 µM (inactive)
ACHN
  GI50: 44.8 µM (inactive)
SF-295
  GI50: 30.6 µM (inactive)
MCF7
  GI50: 30.3 µM (inactive)
SK-MEL-28
  GI50: 47.1 µM (inactive)
HCT-15
  GI50: 38.7 µM
SN12C
  GI50: 21.5 µM (inactive)
HT-29
  GI50: 25.9 µM (inactive)
SR
  GI50: 14.2 µM (inactive)
SK-MEL-5
  GI50: 12.1 µM (inactive)
786-0
  GI50: 33.2 µM (inactive)
OVCAR-5
  GI50: 80.9 µM (inactive)
UACC-62
  GI50: 42.5 µM (inactive)
NCI/ADR-RES
  GI50: 35 µM (inactive)
COLO 205
  GI50: 19.8 µM (inactive)
OVCAR-3
  GI50: 33.7 µM (inactive)
SW-620
  GI50: 63.2 µM (inactive)
SNB-19
  GI50: > 100 µM (inactive)
OVCAR-4
  GI50: 31.4 µM (inactive)
HOP-62
  GI50: 54.3 µM (inactive)
A549
  GI50: 67 µM (inactive)
Hs-578T
  GI50: 40.6 µM (inactive)
MDA-MB-231
  GI50: > 100 µM (inactive)
SK-OV-3
  GI50: 41.1 µM (inactive)
SK-MEL-2
  GI50: 47.8 µM (inactive)
K562
  GI50: 16.4 µM (inactive)
OVCAR-8
  GI50: 37.7 µM (inactive)
RXF 393
  GI50: 7.14 µM (inactive)
NCI-H226
  GI50: 53.7 µM (inactive)
SF-268
  GI50: 48.1 µM (inactive)
NCI-H522
  GI50: 17.2 µM (inactive)
NCI-H460
  GI50: 38.2 µM (inactive)
RPMI-8226
  GI50: 14.4 µM (inactive)
T47D
  GI50: 27.2 µM (inactive)
M14
  GI50: 75.3 µM (inactive)
A498
  GI50: 49.1 µM (inactive)
UO-31
  GI50: 40.5 µM (inactive)
U-251
  GI50: 36.7 µM (inactive)
TK-10
  GI50: 53 µM (inactive)
MDA-N
  GI50: 29.6 µM (inactive)
HOP-92
  GI50: 32.8 µM (inactive)
EKVX
  GI50: 42.9 µM (inactive)
Malme-3M
  GI50: 38.4 µM (inactive)
KM12
  GI50: 27.2 µM (inactive)
MOLT-4
  GI50: 14.4 µM (inactive)
BT-549
  GI50: 39 µM (inactive)
LOX IMVI
  GI50: 34.8 µM (inactive)
CAKI-1
  GI50: > 100 µM (inactive)
DU-145
  GI50: 42.7 µM (inactive)
NCI-H23
  GI50: 31.6 µM (inactive)
UACC-257
  GI50: 33.7 µM (inactive)
HCC 2998
  GI50: 80.5 µM (inactive)
MDA-MB-435
  GI50: 53.2 µM (inactive)
